Laboratory results as given in ChEMBL document CHEMBL1125524, “Adenosine A1 antagonists. 2. Structure-activity relationships on diuretic activities and protective effects against acute renal failure” (J Med Chem, 1992).

Columns and labels:
Rattus norvegicus [1] = assay: Serum creatinine concentration measured after intraperitoneal administration of 1 mg/kg of compound to rats(vehicle 4.74+/-0.31); assay type: functional
Rattus norvegicus [2] = assay: Serum creatinine concentration measured after intraperitoneal administration of 0.1 mg/kg of compound to rats(vehicle 6.90+/-0.20); assay type: functional
Rattus norvegicus [3] = assay: Effect on urinary excretion potassium and sodium after oral administration of 0.1 mg/kg to rats(potassium and sodium excretion in control rat is 0.180+/-0.017); assay type: functional, Urine
Rattus norvegicus [4] = assay: Effect on urinary excretion potassium and sodium after oral administration of 0.4 mg/kg to rats(potassium and sodium excretion in control rat is 0.191+/-0.020); assay type: functional, Urine
Rattus norvegicus [5] = assay: Effect on urinary excretion potassium and sodium after oral administration of 1.6 mg/kg to rats(potassium and sodium excretion in control rat is 0.174+/-0.013); assay type: functional, Urine
Rattus norvegicus [6] = assay: Urea nitrogen concentration measured after intraperitoneal administration of 1 mg/kg of compound to rats(vehicle 139.8+/-7.8); assay type: functional
Rattus norvegicus [7] = assay: Percent inhibition of serum creatinine by the compound given as ratio of Cr value in treated to vehicle treated ones after intraperitoneal administration of 1 mg/kg of compound to rats(vehicle 4.74+/-0.31); assay type: functional; conditions: ip
Rattus norvegicus [8] = assay: Ratio of urinary excretion value (urinary volume) in treated rats to that in control rats, at a peroral dose of 0.1 mg/Kg; assay type: functional, Urine
Rattus norvegicus [9] = assay: Ratio of urinary excretion value (urinary volume) in treated rats to that in control rats, at a peroral dose of 0.4 mg/Kg; assay type: functional, Urine
Rattus norvegicus [10] = assay: Ratio of urinary excretion value (urinary volume) in treated rats to that in control rats, at a peroral dose of 1.6 mg/Kg; assay type: functional, Urine
Rattus norvegicus [11] = assay: Ratio of sodium ion/potassium ion concentration in treated rats to that in control rats, at a peroral dose of 0.1 mg/Kg; assay type: functional
Rattus norvegicus [12] = assay: Ratio of sodium ion/potassium ion concentration in treated rats to that in control rats, at a peroral dose of 0.4 mg/Kg; assay type: functional
Rattus norvegicus [13] = assay: Ratio of sodium ion/potassium ion concentration in treated rats to that in control rats, at a peroral dose of 1.6 mg/Kg; assay type: functional
Rattus norvegicus [14] = assay: Ratio of urinary excretion value (Na+ concentration) in treated rats to that in control rats, at a peroral dose of 0.1 mg/Kg; assay type: functional, Urine
Rattus norvegicus [15] = assay: Ratio of urinary excretion value (Na+ concentration) in treated rats to that in control rats, at a peroral dose of 0.4 mg/Kg; assay type: functional, Urine
Rattus norvegicus [16] = assay: Ratio of urinary excretion value (Na+ concentration) in treated rats to that in control rats, at a peroral dose of 1.6 mg/Kg; assay type: functional, Urine
Rattus norvegicus [17] = assay: Percent inhibition of serum creatinine by the compound given as ratio of Cr value in treated to vehicle treated ones after intraperitoneal administration of 0.1 mg/kg of compound to rats(vehicle 6.90+/-0.20); assay type: functional; conditions: ip
Rattus norvegicus [18] = assay: Oral diuretic activity was measured after oral administration of 0.4 mg/kg to rats(control volume is 1.15+/-0.17); assay type: functional, Urine
Rattus norvegicus [19] = assay: Oral diuretic activity was measured after oral administration of 1.6 mg/kg to rats(control volume is 0.86+/-0.09); assay type: functional, Urine
Rattus norvegicus [20] = assay: Urea nitrogen concentration measured after intraperitoneal administration of 0.1 mg/kg of compound to rats(vehicle 171.3+/-6.4); assay type: functional
Rattus norvegicus [21] = assay: Oral diuretic activity was measured after oral administration of 0.1 mg/kg to rats(control volume is 1.05+/-0.11); assay type: functional, Urine
Rattus norvegicus [22] = assay: Percent inhibition of Urea nitrogen by the compound given as ratio of UN value in treated to vehicle treated ones after intraperitoneal administration of 1 mg/kg of compound to rats(vehicle 139.8+/-7.8); assay type: functional; conditions: ip
Rattus norvegicus [23] = assay: Percent inhibition of Urea nitrogen by the compound given as ratio of UN value in treated to vehicle treated ones after intraperitoneal administration of 0.1 mg/kg of compound to rats(vehicle 171.3+/-6.4); assay type: functional; conditions: ip
Adenosine receptor A1 = biological target: T1, Adenosine receptor A1 (Cavia porcellus, UniProt P47745)
T1 sequence (P47745 whole entry): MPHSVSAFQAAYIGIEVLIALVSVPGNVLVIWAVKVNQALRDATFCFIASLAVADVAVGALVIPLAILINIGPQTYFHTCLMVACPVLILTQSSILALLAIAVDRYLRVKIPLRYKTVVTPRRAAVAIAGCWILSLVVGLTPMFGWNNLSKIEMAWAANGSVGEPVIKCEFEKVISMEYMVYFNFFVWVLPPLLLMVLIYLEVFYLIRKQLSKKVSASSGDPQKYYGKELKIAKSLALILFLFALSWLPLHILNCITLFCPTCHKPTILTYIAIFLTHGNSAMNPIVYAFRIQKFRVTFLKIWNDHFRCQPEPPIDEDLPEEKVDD
Description: Binding affinity against adenosine A1 receptor in guinea pig forebrain membranes using N6-[3H]cyclohexyladenosine as radioligand

Adenosine A2 receptor = Adenosine A2 receptor (Rattus norvegicus, UniProt P29276+P30543)
Rattus norvegicus [24] = assay: Serum creatinine concentration measured after intraperitoneal administration of 1 mg/kg of compound to rats(vehicle 5.07+/-0.33); assay type: functional
Rattus norvegicus [25] = assay: Serum creatinine concentration measured after intraperitoneal administration of 10 mg/kg of compound to rats(vehicle 5.53+/-0.34); assay type: functional
Rattus norvegicus [26] = assay: Urea nitrogen concentration measured after intraperitoneal administration of 1 mg/kg of compound to rats(vehicle 195.8+/-14.4); assay type: functional
Rattus norvegicus [27] = assay: Percent inhibition of serum creatinine by the compound given as ratio of Cr value in treated to vehicle treated ones after intraperitoneal administration of 10 mg/kg of compound to rats(vehicle 5.53+/-0.34); assay type: functional; conditions: ip
Rattus norvegicus [28] = assay: Effect on urinary excretion potassium and sodium after oral administration of 25 mg/kg to rats(potassium and sodium excretion in control rat is 0.265+/-0.099); assay type: functional, Urine
Rattus norvegicus [29] = assay: Ratio of urinary excretion value (urinary volume) in treated rats to that in control rats, at a peroral dose of 25 mg/Kg; assay type: functional, Urine
Rattus norvegicus [30] = assay: Ratio of sodium ion/potassium ion concentration in treated rats to that in control rats, at a peroral dose of 25 mg/Kg; assay type: functional
Rattus norvegicus [31] = assay: Ratio of urinary excretion value (Na+ concentration) in treated rats to that in control rats, at a peroral dose of 25 mg/Kg; assay type: functional, Urine
Rattus norvegicus [32] = assay: Ratio of urinary excretion value (Na+ concentration) in treated rats to that in control rats, at a peroral dose of 6.25 mg/Kg; assay type: functional, Urine
Rattus norvegicus [33] = assay: Oral diuretic activity was measured after oral administration of 25 mg/kg to rats(control volume is 1.64+/-0.7); assay type: functional, Urine
Rattus norvegicus [34] = assay: Urea nitrogen concentration measured after intraperitoneal administration of 10 mg/kg of compound to rats(vehicle 177.4+/-5.3); assay type: functional
Rattus norvegicus [35] = assay: Percent inhibition of Urea nitrogen by the compound given as ratio of UN value in treated to vehicle treated ones after intraperitoneal administration of 10 mg/kg of compound to rats(vehicle 177.4+/-5.3); assay type: functional; conditions: ip
Rattus norvegicus [36] = assay: Percent inhibition of Urea nitrogen by the compound given as ratio of UN value in treated to vehicle treated ones after intraperitoneal administration of 1 mg/kg of compound to rats(vehicle 195.8+/-14.4); assay type: functional; conditions: Rattus norvegicus, ip
Rattus norvegicus [37] = assay: Ratio of urinary excretion value (urinary volume) in treated rats to that in control rats, at a peroral dose of 6.25 mg/Kg; assay type: functional, Urine
Rattus norvegicus [38] = organism: Rattus norvegicus; assay: animal or person; conditions: ip, read-out: Inhibition, dose 1 mg/kg, route intraperitoneal

CCn1c(=O)c2nc(C3CCCC3)[nH]c2n(CC)c1=O
Cr (Rattus norvegicus [1]): 2.28 mg/dL
Cr (Rattus norvegicus [2]): 5.48 mg/dL
Na (Rattus norvegicus [3]): 0.206 m equiv 6hr-1 100g-1
Na (Rattus norvegicus [4]): 0.342 m equiv 6hr-1 100g-1
Na (Rattus norvegicus [5]): 0.24 m equiv 6hr-1 100g-1
UN (Rattus norvegicus [6]): 65.5 mg/dL
inhibition in vivo at 1 mg/kg (Rattus norvegicus [7]): 52%
T/C (Rattus norvegicus [8]): 1.03
T/C (Rattus norvegicus [9]): 1.64
T/C (Rattus norvegicus [10]): 2.43
Na+/K+ (Rattus norvegicus [11]): 1
Na+/K+ (Rattus norvegicus [12]): 1.54
Na+/K+ (Rattus norvegicus [13]): 1.56
T/C (Rattus norvegicus [14]): 1.15
T/C (Rattus norvegicus [15]): 1.79
T/C (Rattus norvegicus [16]): 2.09
inhibition in vivo at 0.1 mg/kg (Rattus norvegicus [17]): 21%
Urine volume (Rattus norvegicus [18]): 1.89 ml 6hr-1 100g-1
Urine volume (Rattus norvegicus [19]): 2.09 ml 6hr-1 100g-1
UN (Rattus norvegicus [20]): 143.9 mg/dL
Urine volume (Rattus norvegicus [21]): 1.09 ml 6hr-1 100g-1
inhibition in vivo at 1 mg/kg (Rattus norvegicus [22]): 53%
inhibition in vivo at 0.1 mg/kg (Rattus norvegicus [23]): 16%
Ki (Adenosine receptor A1): 19 nM
Ki (Adenosine A2 receptor): 440 nM

CCCn1c(=O)[nH]c(=O)c2[nH]c(C34CC5CC(CC3C5)C4)nc21
Cr (Rattus norvegicus [24]): 4.33 mg/dL
Cr (Rattus norvegicus [25]): 2.83 mg/dL
UN (Rattus norvegicus [26]): 164.9 mg/dL
inhibition in vivo at 10 mg/kg (Rattus norvegicus [27]): 49%
Na (Rattus norvegicus [28]): 0.4 m equiv 6hr-1 100g-1
T/C (Rattus norvegicus [29]): 1.43
Na+/K+ (Rattus norvegicus [30]): 1.29
T/C (Rattus norvegicus [31]): 1.51
T/C (Rattus norvegicus [32]): 1.49
Urine volume (Rattus norvegicus [33]): 2.34 ml 6hr-1 100g-1
UN (Rattus norvegicus [34]): 107.4 mg/dL
inhibition in vivo at 10 mg/kg (Rattus norvegicus [35]): 39%
inhibition in vivo at 1 mg/kg (Rattus norvegicus [36]): 16%
T/C (Rattus norvegicus [37]): 1.26
Ki (Adenosine A2 receptor): > 100000 nM
inhibition in vivo at 1 mg/kg (Rattus norvegicus [38]): 15%
